Peptide text beside a SMILES is read from it.
How the values were obtained:
CCL15 = target: T1, CCL15 (Homo sapiens, UniProt Q16663); experiment: CCL15-induced cell migration assay; assay type: cell-based; settings: HD2 mutant peptides 10 μM, chemokine at EC80
T1 sequence (Q16663 22-113): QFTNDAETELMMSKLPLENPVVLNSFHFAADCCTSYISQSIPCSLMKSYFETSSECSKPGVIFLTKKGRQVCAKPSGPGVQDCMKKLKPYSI
Protocol: (§1) FIGS. 24 and 25. Effect of exemplar mutant HD2 peptides on chemotaxis. Box-whisker plots showing the effect of the exemplar mutant HD2 peptides on cell migration induced by indicated human chemokines. All experiments were performed as at least three technical and between one to three biological replicates, and individual data points are indicated. […] Chemokine and cell type names are indicated. HD2SCR is a scrambled version of HD2 used as negative control. All peptides were at 10 μM final concentration and chemokines at EC80 doses. Statistically significant differences (compared to control, coloured blue), using Dunnett's test with correction for multiple comparisons, are indicated by asterisks: ****=P≤0.0001, ***=P≤0.001, **=P≤0.01, *=P≤0.05.
The J:CXCR1 cell line was generated by transfecting Jurkat cells by electroporation with PvuI-linearized plasmid D1398 and selecting with blasticidin (Sigma-Aldrich, Cat #203350, […]). […] J:CXCR1 cells were cultured in RPMI-1640 media (Gibco), supplemented with 10% FBS and 5 mM L-Glutamine with blasticidin. For J:CXCR1 migration assays, 300,000 cells/well were added to the top chamber of a 3 μm Transwell insert (Corning) in 50 μL of migration media (RPMI-1640, 0.5% FBS, 4 mM L-Glutamine, 0.05% DMSO). […] Cell counts were determined by Attune NxT Flow Cytometer Plate Reader (ThermoFisher), based on cell size parameters FSC-H/SSC-H. Experiments were performed in 3 technical and 3 biological replicates. […] Statistical significances between control experimental groups was evaluated using Dunnett's test. […] EC80 was calculated by fitting a chemokine dose-response curve with 3 parameters (fixing the top to 100%). IC50 was calculated by fitting an inhibitor response curve with 4 parameters.
Migration assays using THP1, activated T-cell (ATC) and J:CXCR1 (Jurkat cells stably transfected with CXCR1 receptor) were performed as described previously. […] EC80 was calculated by fitting a chemokine dose-response curve with 3 parameters (fixing the top to 100%). IC50 was calculated by fitting an inhibitor response curve with 4 parameters. […]

CCL14 = target: T2, CCL14 (Homo sapiens, UniProt Q16627); experiment: CCL14-induced cell migration assay; assay type: cell-based; settings: HD2 mutant peptides 10 μM, chemokine at EC80
T2 sequence (Q16627 20-93): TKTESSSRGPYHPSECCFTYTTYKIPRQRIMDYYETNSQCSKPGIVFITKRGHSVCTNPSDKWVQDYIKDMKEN
Protocol: as §1, with “Statistically significant differences (compared to control, coloured blue), using Dunnett's test with correction for multiple comparisons, are indicated by asterisks: ****=P≤0.0001, ***=P≤0.001, **=P≤0.01, *=P≤0.05.” left out
The J:CXCR1 cell line was generated by transfecting Jurkat cells by electroporation with PvuI-linearized plasmid D1398 and selecting with blasticidin (Sigma-Aldrich, Cat #203350, 5 g/mL). […] Cell counts were determined by Attune NxT Flow Cytometer Plate Reader (ThermoFisher), based on cell size parameters FSC-H/SSC-H. Experiments were performed in 3 technical and 3 biological replicates. […] Statistical significances between control experimental groups was evaluated using Dunnett's test. […] EC80 was calculated by fitting a chemokine dose-response curve with 3 parameters (fixing the top to 100%). IC50 was calculated by fitting an inhibitor response curve with 4 parameters. […]

## CC(C)C[C@H](NC(=O)[C@@H]1CCCN1C(=O)[C@H](C)NC(=O)[C@H](Cc1ccc(O)cc1)NC(=O)[C@H](C)NC(=O)[C@@H](NC(=O)[C@H](Cc1ccc(O)cc1)NC(=O)[C@H](CC(=O)O)NC(=O)[C@H](CC(=O)O)NC(=O)[C@H](CCC(=O)O)NC(=O)[C@@H](N)CCC(=O)O)[C@@H](C)O)C(=O)N[C@H](C(=O)N[C@@H](CS)C(=O)N[C@@H](Cc1ccc(O)cc1)C(=O)N[C@@H](Cc1ccccc1)C(=O)N[C@@H](CS)C(N)=O)[C@@H](C)O [HD2_C16, EEDDYTAYAPLTCYFC] (H-EEDDYTAYAPLTCYFC-NH2; N-terminus assumed)
CCL15
  chemotaxis compared with the parental HD2 peptide: significant reduction in chemotaxis
CCL14
  chemotaxis compared with the parental HD2 peptide: significant reduction in chemotaxis

## EEDDYTAYWPLTCYFT [A9W]
CCL15
  chemotaxis compared with the parental HD2 peptide: significant reduction in chemotaxis

## EEDDYWAYAPLTCYFT [HD2_W6]
CCL15
  chemotaxis compared with the parental HD2 peptide: significant reduction in chemotaxis
